# Assays:
# [1] = tested on: Vesicular stomatitis virus; test: microbe, parasite or virus in culture; assay type: cell-based; conditions: read-out: logs of marker virus inactivated
# Sindbis = test: microbe, parasite or virus in culture; assay type: cell-based; conditions: read-out: logs of marker virus inactivated
# Herpes Simplex virus = test: Photodynamic virus inactivation, plaque assay of virus infectivity; assay type: cell-based; conditions: AHF products; chlorpromazine 1 X 10^-4M; light for less than ten minutes; read-out: logs of marker virus inactivated
# [2] = tested on: LAV reverse transcriptase; test: Photodynamic inactivation of LAV seeded into AHF, reverse transcriptase assay; assay type: biochemical; conditions: AHF seeded with LAV, Chlorpromazine 1 X 10^-4M, unfiltered Mercury Arc Lamp
# Description: The following data supports photodynamic inactivation of LAV using indirect methods. AHF was seeded with LAV virus. In the first set of data, Protoporphyrin was added at a concentration of 5 X 10^-6M. The mixture was exposed to light ffrom a 65 watt Super Diazo Blue lamp at a distance of 10 cm. Albumin was added to the samples after inactivation to inhibit any inactivation from extraneous light. The product was lyophilized and subjected to a reverse transcriptase assay.
# In the second set of data, LAV was seeded into an AHF composition. Chlorpromazine (1 X 10^-4M) was added as a photosensitize and the mixture was exposed to unfiltered light from an 85 watt high pressure mercury arc lamp at a distance of 10 cm. The product was lyophilized and analyzed for reverse transcriptase activity. Results are reported in counts per minute.
# Factor VIII = biological target: T1, Factor VIII (Homo sapiens, UniProt P00451); test: Factor VIII C activity, one-stage activated partial thromboplastin time assay (AHF product after photosensitizer and light)
# T1 sequence (P00451 20-1332 limits assumed): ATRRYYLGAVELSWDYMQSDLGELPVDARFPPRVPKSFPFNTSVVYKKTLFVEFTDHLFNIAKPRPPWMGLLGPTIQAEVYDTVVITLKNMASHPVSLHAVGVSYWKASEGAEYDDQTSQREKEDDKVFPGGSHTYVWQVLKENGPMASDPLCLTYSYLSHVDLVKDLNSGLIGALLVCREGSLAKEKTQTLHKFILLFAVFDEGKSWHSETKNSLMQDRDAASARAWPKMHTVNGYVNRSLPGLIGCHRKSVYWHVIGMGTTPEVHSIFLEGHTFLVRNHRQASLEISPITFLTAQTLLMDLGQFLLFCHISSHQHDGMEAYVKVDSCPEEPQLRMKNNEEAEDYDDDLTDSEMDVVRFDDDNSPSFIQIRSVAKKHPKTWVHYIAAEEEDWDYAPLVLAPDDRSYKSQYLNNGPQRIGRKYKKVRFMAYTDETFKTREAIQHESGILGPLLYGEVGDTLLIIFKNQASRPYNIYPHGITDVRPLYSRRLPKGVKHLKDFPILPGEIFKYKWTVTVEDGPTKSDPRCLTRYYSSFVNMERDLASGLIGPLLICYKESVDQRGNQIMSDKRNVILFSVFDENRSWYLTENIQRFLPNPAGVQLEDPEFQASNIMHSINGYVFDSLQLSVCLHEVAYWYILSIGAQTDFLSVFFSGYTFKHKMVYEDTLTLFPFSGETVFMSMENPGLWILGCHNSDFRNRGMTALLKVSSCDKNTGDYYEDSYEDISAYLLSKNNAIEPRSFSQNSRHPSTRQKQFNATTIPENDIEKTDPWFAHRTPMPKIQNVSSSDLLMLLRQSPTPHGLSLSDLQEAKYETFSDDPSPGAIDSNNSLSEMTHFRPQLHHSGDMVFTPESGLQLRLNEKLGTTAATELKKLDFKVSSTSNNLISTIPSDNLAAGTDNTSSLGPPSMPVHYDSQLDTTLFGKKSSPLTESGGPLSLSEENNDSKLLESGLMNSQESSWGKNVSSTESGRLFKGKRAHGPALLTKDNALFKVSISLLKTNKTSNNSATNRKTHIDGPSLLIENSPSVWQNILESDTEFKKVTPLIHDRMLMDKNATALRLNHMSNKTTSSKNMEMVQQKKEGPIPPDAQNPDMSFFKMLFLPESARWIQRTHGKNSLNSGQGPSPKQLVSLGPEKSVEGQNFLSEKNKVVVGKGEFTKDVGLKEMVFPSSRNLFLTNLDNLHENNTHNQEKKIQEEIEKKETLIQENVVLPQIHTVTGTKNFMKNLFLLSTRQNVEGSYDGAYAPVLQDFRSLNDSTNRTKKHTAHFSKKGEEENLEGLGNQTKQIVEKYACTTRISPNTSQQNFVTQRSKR
# T1 sequence (P00451 1668-2351 limits assumed): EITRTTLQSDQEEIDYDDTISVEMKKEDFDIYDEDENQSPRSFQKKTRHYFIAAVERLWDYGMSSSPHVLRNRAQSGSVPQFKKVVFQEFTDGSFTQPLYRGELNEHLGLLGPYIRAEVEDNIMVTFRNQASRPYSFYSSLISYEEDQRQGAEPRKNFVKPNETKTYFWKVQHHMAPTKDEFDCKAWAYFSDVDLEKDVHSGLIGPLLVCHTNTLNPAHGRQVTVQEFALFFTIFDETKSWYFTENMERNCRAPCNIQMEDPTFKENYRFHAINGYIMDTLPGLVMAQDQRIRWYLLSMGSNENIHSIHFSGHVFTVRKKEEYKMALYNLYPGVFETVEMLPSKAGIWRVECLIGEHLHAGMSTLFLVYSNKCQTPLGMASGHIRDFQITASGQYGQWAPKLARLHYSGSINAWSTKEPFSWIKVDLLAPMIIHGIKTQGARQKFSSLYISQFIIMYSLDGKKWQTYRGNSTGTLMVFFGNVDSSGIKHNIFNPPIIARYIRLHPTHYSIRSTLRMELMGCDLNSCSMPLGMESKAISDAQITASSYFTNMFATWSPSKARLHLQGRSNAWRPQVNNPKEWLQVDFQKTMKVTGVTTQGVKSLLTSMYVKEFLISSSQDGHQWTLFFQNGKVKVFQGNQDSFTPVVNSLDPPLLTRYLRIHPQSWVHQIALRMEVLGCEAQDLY
# Description: The mixture was then exposed to light of a defined wavelength for a specified period of time.
# Several light sources were used. A U.V. light source derived from a high pressure mercury vapor quartz lamp (85 watts) was employed. This source provided a wide band of light in the 390 to 410 nm range. A filter was used to remove the radiation below 350 nm in wave length. Alternatively a super diazo blue fluorescent lamp was used which has a peak emission near the absorption peak of the porphyrins employed.
# Factor VIII C and Factor IX activity was determined by the one-stage activated partial thromboplastin time assay using Kaolin as an activator and human Factor VIII or Factor IX deficient plasma as a substrate. […] It involves the addition of the test sample to Factor VIII or Factor IX deficient plasma and measuring the degree of correction of the clotting time. This is then compared to a curve constructed using various dilutions of a lyophilized concentrate (reference) of known potency. […] Both sample and refernce are prediluted in Factor VIII deficient substrate plasma to an approximate activity of 1 U/mL. From the percentage of the reference, the potency can be estimated.
# [3] = Chlorpromazine 1x10^-4M, Mercury Arc Lamp, Sensitizer added-10 min light
# [4] = Chlorpromazine 1x10^-5M, Mercury Arc Lamp, Sensitizer added-10 min light
# [5] = Chlorpromazine 1x10^-5M, Mercury Arc Lamp, Sensitizer added-20 min light
compound,measurement,setting,value
"CN(C)CCCN1c2ccccc2Sc2ccc(Cl)cc21 [Chlorpromazine, 10-(3-dimethyl-aminopropyl)-2-chlorphenothiazine]",log reduction at 100 µM,[1],> 5
same,log reduction at 100 µM,Sindbis,> 5
same,log reduction at 100 µM,Herpes Simplex virus,> 5
same,C.P.M. (reverse transcriptase activity),[2]; exposure 0 minutes,"36,192 C.P.M."
same,C.P.M. (reverse transcriptase activity),[2]; exposure 5 minutes,"27,100 C.P.M."
same,C.P.M. (reverse transcriptase activity),[2]; exposure 10 minutes,"6,814 C.P.M."
same,C.P.M. (reverse transcriptase activity),[2]; exposure 20 minutes,"4,742 C.P.M."
same,"% Change (Ref: Bulk), Percent change in Factor VIII coagulant activity",Factor VIII; [3],-29%
same,Units/ml,Factor VIII; [3],20.0 Units/ml
same,Units/ml,"Factor VIII; Chlorpromazine 1x10^-4M, Sensitizer added-no light",27.3 Units/ml
same,"% Change (Ref: Bulk), Percent change in Factor VIII coagulant activity",Factor VIII; [4],-23%
same,Units/ml,Factor VIII; [4],24.8 Units/ml
same,"% Change (Ref: Bulk), Percent change in Factor VIII coagulant activity",Factor VIII; [5],-43%
same,Units/ml,Factor VIII; [5],18.2 Units/ml
same,Units/ml,"Factor VIII; Chlorpromazine 1x10^-5M, Sensitizer added-no light",30.1 Units/ml
